From ChEMBL document CHEMBL1156526, “Specificity and mechanism of action of EHT 1864, a novel small molecule inhibitor of Rac family small GTPases” (2007) come the findings set out here.

Activity calls are given as the source filed them. The calls are words filed in the database; no cut-off is given here.

The subject of assay [1] is U-87 MG. In words: Reduction of Rac1-GTPase level in platelet derived growth factor-induced human U87MG cells measured with GST-rhotekin-RBD by pulldown assay. It counts as functional, cell-based. As to conditions: U-87MG ATCC.
The test system of assay [2] is U-87 MG. The assay can be described thus: Reduction of RhoA-GTPase level in platelet derived growth factor-induced human U87MG cells measured with GST-rhotekin-RBD by pulldown assay. It counts as functional, cell-based. Particulars: U-87MG ATCC.
Assay [3] concerns U-87 MG. The assay can be described thus: Reduction of Cdc42-GTPase level in platelet derived growth factor-induced human U87MG cells measured with GST-rhotekin-RBD by pulldown assay. It counts as functional, cell-based. Particulars: U-87MG ATCC.
The test system of assay [4] is U-87 MG. In words: Reduction of RhoA-GTPase level in platelet derived growth factor-induced human U87MG cells measured with GST-PAK-RBD by pulldown assay. It counts as functional, cell-based. Particulars: U-87MG ATCC.
Assay [5] relates to U-87 MG. The assay can be described thus: Reduction of Rac1-GTPase level in platelet derived growth factor-induced human U87MG cells measured with GST-PAK-RBD by pulldown assay. Particulars: U-87MG ATCC. It counts as functional, cell-based.
The test system of assay [6] is U-87 MG. In words: Reduction of Cdc42-GTPase level in platelet derived growth factor-induced human U87MG cells measured with GST-PAK-RBD by pulldown assay. It counts as functional, cell-based. As to conditions: U-87MG ATCC.
Assay [7] concerns the target Cell division control protein 42 homolog (Homo sapiens) (UniProt P60953). The assay can be described thus: Inhibition of Cdc42-PAK-RBD complex formation in platelet derived growth factor-induced human U87MG cells at 50 uM by fluorescence anisotropy. Particulars: U-87MG ATCC. It counts as cell-based.
Assay [8] has as its system 293T. In words: Effect on interaction between Rac1 15A mutant and human Tiam1 C1199 mutant expressed in 293T cells by Western blot analysis. It counts as cell-based. A general note: Immunoblotting shows a protein as a band on a membrane.
The test system of assay [9] is NIH3T3. In words: Effect on interaction between Rac1 15A mutant and human Tiam1 C1199 mutant expressed in NIH3T3 cells by Western blot analysis. It counts as cell-based.
In assay [10] the target is Ras-related C3 botulinum toxin substrate 1 (Mus musculus) (UniProt P63001). The assay can be described thus: Effect on Rac1 binding to RhoGDI1 in mouse NIH3T3 cells by Western blot analysis. It counts as cell-based.
Assay [11] has the same target. In words: Effect on Rac1 binding to RhoGDI2 in mouse NIH3T3 cells by Western blot analysis. It counts as cell-based.
Assay [12] concerns the target Ras-related C3 botulinum toxin substrate 2 (Homo sapiens) (UniProt P15153). The assay can be described thus: Binding affinity at Rac2 at 1 uM by fluorescence anisotropy. (In fluorescence polarisation assays a small probe gives low polarisation when free and higher when bound to something large.)
Assay [13] addresses Ras-related C3 botulinum toxin substrate 3 (Homo sapiens) (UniProt P60763). In words: Binding affinity at Rac3 at 1 uM by fluorescence anisotropy.
Assay [14] addresses Cell division control protein 42 homolog (Homo sapiens) (UniProt P60953). In words: Binding affinity at Cdc42 at 1 uM by fluorescence anisotropy.
The subject of assay [15] is NIH3T3. In words: Inhibition of Rac1 61L mutant-induced cellular transformation in mouse NIH3T3 cells at 5 uM after 3 to 5 weeks. It counts as cell-based.
The test system of assay [16] is NIH3T3. In words: Inhibition on Rac1 61L-induced focus forming activity in mouse NIH3T3 cells at 5 uM. It counts as cell-based.
In assay [17] the target is Cell division control protein 42 homolog (Homo sapiens) (UniProt P60953). In words: Inhibition of platelet derived growth factor-induced endogenous association of Cdc42 with GST-PAK-RBD in human U87MG cells after 5 mins by Western blot analysis. Particulars: U-87MG ATCC. It counts as cell-based.
Chain of Cell division control protein 42 homolog (Homo sapiens) (P60953 whole entry, looked up): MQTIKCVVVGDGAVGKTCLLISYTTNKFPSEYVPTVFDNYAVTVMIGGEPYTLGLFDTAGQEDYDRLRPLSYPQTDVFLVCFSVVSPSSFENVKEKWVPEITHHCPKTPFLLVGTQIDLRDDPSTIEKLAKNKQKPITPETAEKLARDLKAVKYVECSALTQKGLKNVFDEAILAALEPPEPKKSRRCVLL
Assay [18] has as its system NIH3T3. The assay can be described thus: Inhibition of platelet derived growth factor-induced lamellipodia formation in mouse NIH3T3 cells at 5 uM. It counts as functional.
Assay [19] concerns NIH3T3. In words: Inhibition of lysophosphatidic acid-induced actin stress fibers formation in mouse NIH3T3 cells at 5 uM. It counts as functional, cell-based.
In assay [20] the test system is NIH3T3. The assay can be described thus: Inhibition of bradykinin-induced filopodia formation in mouse NIH3T3 cells at 5 uM. It counts as functional, cell-based.
In assay [21] the test system is NIH3T3. The assay can be described thus: Inhibition on Tiam1 C1199 mutant-induced focus forming activity in mouse NIH3T3 cells at 5 uM. It counts as cell-based.
Assay [22] deals with NIH3T3. In words: Inhibition of H-Ras 61L mutant-induced focus formation in mouse NIH3T3 cells at 5 uM after 14 days. It counts as cell-based.
Assay [23] deals with NIH3T3. In words: Inhibition of Ras-induced cell growth in H-Ras 61L expressing mouse NIH3T3 cells at 5 uM by MTT assay. It counts as cell-based.
In assay [24] the test system is NIH3T3. In words: Inhibition on Rac1 61L […]-induced focus forming activity in mouse NIH3T3 cells at 5 uM. It counts as cell-based.

`O=c1cc(CN2CCNCC2)occ1OCCCCCSc1ccnc2cc(C(F)(F)F)ccc12`: the outcome in assay [1], in assay [2], in assay [3], in assay [4], in assay [5] and in [6] was inactive.

Usually inhibition stands for the percentage by which the read-out fell short of the control. Read a high inhibition as a response far below the control. Turning to `O=c1cc(CN2CCOCC2)occ1OCCCCCSc1ccnc2cc(C(F)(F)F)ccc12`, the result in assay [2], in assay [10], in assay [11], in [12], in assay [13] and in assay [15] was Active. Besides, the outcome in assay [19], in [20], in assay [21] and in assay [23] was Active. Besides, the outcome in [7], in assay [8], in [9], in assay [14], in [17] and in [22] was inactive. The result in assay [24] was inactive. In assay [16], this molecule returned an inhibition of 80%. The inhibition at 5 µM in assay [18] is 80%.

In the case of `CCN(CC)CCCC(C)Nc1nc(C)cc(Nc2ccc3nc(C)cc(N)c3c2)n1` (stereo unspecified), the result in assay [15] was inactive.
